In data set [1] the test system is Rattus norvegicus. Conditions: for LC50 / LD50: acute.
The subject of data set [2] is Rattus norvegicus. Conditions: oral, gavage.
[3] abbreviates: reproduction developmental, duration: 103 weeks, oral, drinking water, generation: F0.
[4] abbreviates: reproduction developmental, duration: 104 weeks, oral, drinking water.
The mark [5] stands for this setting: reproduction developmental, duration: 59 days, oral, drinking water.
[6] abbreviates: subchronic, duration: 90 days, oral, diet, Sprague-Dawley.
Setting [7] is: reproduction developmental, F, Crl:CD(SD), generation: P0, P0: Endocrine: Adrenal: Adrenal Gland Histopathology + P0: Endocrine: Adrenal: Adrenal Gland Weight, Absolute + P0: Endocrine: Adrenal: ….
[8] abbreviates: reproduction developmental, F, Crl:CD(SD), generation: P0, P0: Hematologic: Multi-Organ: Activated Partial Thromboplastin Time (APTT) + P0: Hematologic: Multi-Organ: Hematocrit (HCT) + P0: ….
The mark [9] stands for this setting: reproduction developmental, M, Crl:CD(SD), generation: P0, P0: Endocrine: Adrenal: Adrenal Gland Histopathology + P0: Endocrine: Adrenal: Adrenal Gland Weight, Absolute + P0: Endocrine: Adrenal: ….
[10] abbreviates: reproduction developmental, M, Crl:CD(SD), generation: P0, P0: Hematologic: Multi-Organ: Activated Partial Thromboplastin Time (APTT) + P0: Hematologic: Multi-Organ: Hematocrit (HCT) + P0: ….
Setting [11] is: short-term, duration: 10 days, M, Sprague-Dawley, Endocrine: Multi-Organ: Follicle Stimulating Hormone (FSH), Serum + Endocrine: Multi-Organ: Leuteinizing Hormone (LH), Serum + Endocrine: ….
The mark [12] stands for this setting: short-term, duration: 10 days, M, Sprague-Dawley, Endocrine: Multi-Organ: Testosterone (T), Serum + Reproductive: Epididymis: Epididymis Weight, Absolute + Reproductive: Epididymis: ….

The values that follow come from EPA's ToxValDB 9.5.

In general, NOAEL refers to the highest dose or exposure tested at which no adverse effect was seen. Broadly, the LOAEL is the lowest dose or exposure tested at which an adverse effect was seen. The term LD50 denotes the dose expected to kill half of the subjects tested.

Structures are written as SMILES. Several values for one entry are separate records, joined by “and”; a condition that tells them apart may be missing. Equal entries are not always repeated. Where only a bound is given, the exact number is not on record here.

With `COC(=O)CC(C)=O` [Methyl acetoacetate], the NOAEL in data set [1] (developmental, oral, gavage, Crj:CD(SD)) was greater than 1000 mg/kg-day; in data set [1] (short-term, duration: 4 weeks, oral, gavage, F, Sprague-Dawley) it was 1000 mg/kg-day; in data set [1] (short-term, duration: 4 weeks, oral, gavage, M, Sprague-Dawley), 1000 mg/kg-day.

As to `O=c1[n-]c(=O)[nH]c(=O)[nH]1.[Na+]` [Monosodium cyanurate], the NOAEL in data set [1] (developmental, duration: 103 weeks, oral, drinking water) is 5380 ppm; in data set [1] (developmental, duration: 10 days, oral, gavage, COBSCD (Charles River)), greater than 5000 mg/kg-day; in data set [1] (reproduction developmental, duration: 13 weeks, oral, drinking water) it was no less than 5380 ppm; in data set [1] (setting [3]), 1200 ppm; in data set [1] (reproduction developmental, duration: 103 weeks, oral, drinking water, generation: F1), 5380 ppm; in data set [1] (reproduction developmental, duration: 103 weeks, oral, drinking water, generation: F2), 5380 ppm. The NOAEL in data set [1] (setting [4]) is 2400 ppm; in data set [1] (reproduction developmental, duration: 10 days, oral, gavage, F, COBSCD (Charles River)) it was greater than 5000 mg/kg-day; in data set [1] (setting [5]), ≥ 400 ppm and ≤ 1200 ppm. Further, the results for the lowest observed adverse effect level (LOAEL) in data set [1] (setting [3]), in data set [1] (setting [4]) and in data set [1] (setting [5]) were 5380 ppm, 5380 ppm and no less than 2000 ppm, respectively.

On to `CCC(C)Nc1ccc(NC(C)CC)cc1` (configuration not stated) [N,N'-Bis(1-methylpropyl)-1,4-benzenediamine], for which the LC50 in data set [1] (inhalation, Sprague-Dawley) was greater than 0.2 mg/L. In addition, the LOAEL in data set [1] (short-term, duration: 28 days, oral, gavage, Sprague-Dawley) is 10 mg/kg-day. Further, in data set [1] (setting [6]), the LOAEL was 500 mg/kg-day and the NOAEL worked out at 100 mg/kg-day.

For the compound `COc1ccccc1NC(=O)CC(C)=O` [N-(2-Methoxyphenyl)-3-oxobutanamide], the LD50 in data set [1] (oral, gavage, Crj:CD) amounted to 1640 mg/kg.

In the case of `CCCCNS(=O)(=O)c1ccccc1` [N-Butylbenzenesulfonamide], the LC50 in data set [1] (Inhalation, Wistar) is greater than 4070 mg/m3.

In data set [1] (subchronic, duration: 90 days, oral, gavage, Sprague-Dawley), `O=C([O-])CCCCCCCC(=O)[O-].[Li+].[Li+]` [Nonanedioic acid, dilithium salt] gave an NOAEL of 1000 mg/kg-day.

For the compound `O=C(O)C(F)(F)C(F)(F)C(F)(F)C(F)(F)C(F)(F)C(F)(F)C(F)(F)C(F)(F)C(F)(F)C(F)(F)C(F)(F)C(F)(F)C(F)(F)F` [Perfluorotetradecanoic acid], the NOAEL in data set [2] (developmental, F, Crl:CD(SD), generation: F1, F1: Developmental: Whole Body: Body Weight, Birth + F1: Developmental: Whole Body: Body Weight, Pup, PND 1 + F1: Developmental: Whole Body: …) is 1 mg/kg-day and 3 mg/kg-day; in data set [2] (developmental, M/F, Crl:CD(SD), generation: F1, F1: Developmental: Whole Body: Litter Size + F1: Developmental: Whole Body: Male Pups per Pups Sexed + F1: Developmental: Whole Body: Mean …), 1 mg/kg-day and 3 mg/kg-day; in data set [2] (developmental, M, Crl:CD(SD), generation: F1, F1: Developmental: Whole Body: Body Weight, Birth + F1: Developmental: Whole Body: Body Weight, Pup, PND1 + F1: Developmental: Whole Body: …), 1 mg/kg-day and 3 mg/kg-day; in data set [2] (setting [7]), 1 mg/kg-day; in data set [2] (setting [8]), 3 mg/kg-day; in data set [2] (setting [9]), 1 mg/kg-day. The NOAEL in data set [2] (setting [10]) was 3 mg/kg-day; in data set [2] (setting [11]), 10 mg/kg-day; in data set [2] (short-term, duration: 10 days, M, Sprague-Dawley, Endocrine: Multi-Organ: Follicle Stimulating Hormone (FSH), Serum + Endocrine: Multi-Organ: Leuteinizing Hormone (LH), Serum + Whole Body: …), 20 mg/kg-day; in data set [2] (setting [12]), 10 mg/kg-day. Moreover, the LOAEL in data set [2] (reproduction developmental, F, Crl:CD(SD), generation: P0, P0: Cardiovascular: Heart: Heart Histopathology + P0: Cardiovascular: Heart: Heart Weight, Absolute + P0: Cardiovascular: Heart: Heart …) was 3 mg/kg-day; in data set [2] (setting [7]), 3 mg/kg-day; in data set [2] (setting [8]), 10 mg/kg-day; in data set [2] (reproduction developmental, M, Crl:CD(SD), generation: P0, P0: Cardiovascular: Heart: Heart Histopathology + P0: Cardiovascular: Heart: Heart Weight, Absolute + P0: Cardiovascular: Heart: Heart …) it was 3 mg/kg-day; in data set [2] (setting [9]) it was 3 mg/kg-day; in data set [2] (setting [10]), 10 mg/kg-day. The LOAEL in data set [2] (setting [11]) and in data set [2] (setting [12]) was 20 mg/kg-day in each case.

For the compound `O.O.O=c1nc([O-])n(Cl)c(=O)n1Cl.[Na+]` [Sodium dichloroisocyanurate dihydrate], the LD50 in data set [1] (dermal, Sprague-Dawley) was greater than 5000 mg/kg; in data set [1] (oral, gavage, Sprague-Dawley) it was 1820 mg/kg.

In data set [1] (dermal, Wistar), `NNC(=S)NN` [Thiocarbazide] returned an LD50 greater than 500 mg/kg. The LC50 in data set [1] (inhalation, Wistar) is 50 mg/m3 and > 75.5 mg/m3.

In the case of `c1ccc(B(c2ccccc2)c2ccccc2)cc1` [Triphenylborane], the LD50 in data set [1] (oral, gavage, Sprague-Dawley) stood at 196 mg/kg.

With `c1ccc(-c2ccccc2-c2ccccc2)cc1` [o-Terphenyl], the “LOAEL (% diet)” value in data set [1] (short-term, duration: 14 days, oral, diet, Wistar) came to 0.2. The NOAEL in data set [1] (subchronic, duration: 30 days, oral, diet, Sprague-Dawley) was found to be 100 mg/kg-day.
